Measurements from patent US10568930B2, “Agents and methods of treatment” (Hexima Limited, priority 2014, dated 2020).

Key:
Assay type in all cases: cell-based
Conditions in all cases: for Expected inhibition: Ee, Limpel formula; for Synergy: Io-Ee
Candida albicans [1] = test: Antifungal growth assay, defensin plus proteinase inhibitor; set-up: key to Synergy: Io-Ee in % inhibition points; >60 high synergy, <15 none
Method: (§1) Spores are isolated from sporulating fungus spp. growing on yeast extract peptone dextrose agar (Candida albicans, Cryptococcus gattii—1.5×10^6) or ½ strength Sabouraud dextrose agar (Trichophyton interdigitale, Microsporum fulvum—5×10^4). Spores are removed from the plates by the addition of ½ strength potato dextrose broth (PDB). Spore concentrations are measured using a haemocytometer.
(§2) Antifungal assays were conducted in 96 well microtitre plates. Wells were loaded with 10 μL of filter sterilized (0.22 μm syringe filter, Millipore) defensin (10× stock for each final concentration) or water, 10 μL, of filter sterilized (0.22 μm syringe filter, Millipore) proteinase inhibitor or chemical fungicide (10× stock for each final concentration) or water and 80 μL of 5×10^3 spores/mL in ½ strength PDB. The plates were incubated at 24° C. Fungal growth was assayed by measuring optical density at 595 nm (A595) using a microtitre plate reader (SpectraMax Pro M2; Molecular Devices. Growth was allowed to proceed until the optical density (OD) of the fungus in the absence of any test defensin reached an OD of 0.2. Each test was performed in duplicate.
(§3) Synergy is classified as the difference between the observed % fungal growth inhibition caused by the combination of a defensin and a proteinase inhibitor (or a defensin and a chemical fungicide) (Io value) and the expected % fungal growth inhibition of the defensin and the proteinase inhibitor (or the defensin and the chemical fungicide) based on the sum of the % fungal growth inhibition of the defensin and the proteinase inhibitor (or the defensin and the chemical fungicide) on their own (Ee value calculated according to the Limpel formula used by Richer et al. (1987) supra). The difference, Io-Ee, is the synergy value. A synergy value up to 15 means no significant synergy; 15-30 is a low level of synergy; 30-60 is a medium level of synergy; and >60 is a high level of synergy. Synergy calculations are presented in Tables 2 through 7 wherein, as indicated above, Ee is the expected effect from the additive response according to Limpel's formula expressed as percent inhibition and To is the percent inhibition observed. Synergy occurs when To values are higher than Ee values.

[2] = tested on: Trichophyton interdigitale; test: as above
Method: as §1, §2, §3

Candida albicans [3] = test: Antifungal growth assay, defensin plus chemical fungicide; set-up: key to Synergy: Io-Ee in % inhibition points; <15 none, 15-30 low, 30-60 medium, >60 high
Method: Chemical fungicides were sourced commercially and were prepared as 10× stock solutions in H2O (caspofungin and fenpropimorph) or as a 100× stock in methanol (terbinafine).
as §1, §2, §3

[4] = defensin 4 μM + BPTI (0.625 μM)
[5] = defensin 4 μM + HyCPI6 (2.5 μM)
[6] = defensin 0.5 μM + BPTI (0.625 μM)
[7] = defensin 0.5 μM + HvCPI6 (2.5 μM)
[8] = defensin 0.5 μM + SlCys9N (2.5 μM)
[9] = defensin 2.5 μM + Caspofungin (4 ng/ml)
[10] = defensin 2 μM + BPTI (0.625 μM)
[11] = defensin 2 μM + HyCPI6 (2.5 μM)
[12] = defensin 2 μM + SlCys9N (2.5 μM)
[13] = permeabilizing defensin 1 μM + Caspofungin (2 ng/ml)
[14] = defensin 2 μM + Fenpropimorph (2 ug/ml)
[15] = defensin 4 μM + SlCys9N (2.5 μM)
[16] = defensin 1 μM + HyCPI6 (2.5 μM)
[17] = defensin 1 μM + SlCys9N (2.5 μM)
[18] = defensin 1 μM + BPTI (0.625 μM)
[19] = defensin 1 μM + Fenpropimorph (2 ug/ml)
[20] = non-permeabilizing defensin 1 μM + Caspofungin (2 ng/ml)

## HXL001: Class I permeabilizing plant defensin, mature protein SEQ ID NO:26 (RHCLSQSHRFKGLCMSSNNCANVCQTENFPGGECKAEGATRKCFCKKIC; HXL001 Zea mays)
Candida albicans [1]; [4]
  Observed inhibition: 72.6%
  Expected inhibition: 2.6%
  Synergy: 70.1
Candida albicans [1]; [5]
  Observed inhibition: 84.2%
  Expected inhibition: 59.2%
  Synergy: 25.0
Candida albicans [1]; defensin 4 μM + SlCys9N (2 μM)
  Observed inhibition: 85.0%
  Expected inhibition: 68.1%
  Synergy: 16.9
[2]; [6]
  Observed inhibition: 67.4%
  Expected inhibition: 36.9%
  Synergy: 30.5
[2]; [7]
  Observed inhibition: 84.7%
  Expected inhibition: 32.5%
  Synergy: 52.2
[2]; [8]
  Observed inhibition: 70.2%
  Expected inhibition: 16.8%
  Synergy: 53.4
Candida albicans [3]; [9]
  Observed inhibition: 73.4%
  Expected inhibition: 11.7%
  Synergy: 61.7

## HXL002: Class I permeabilizing plant defensin, mature protein SEQ ID NO:27 (RDCLSQSHKFKGACLSSSNCAAVCRTENFPDGECHTHNFARKCFCKRAC; HXL002 Triticum aestivum)
Candida albicans [3]; [9]
  Observed inhibition: 40.8%
  Expected inhibition: 6.1%
  Synergy: 34.7

## HXL004: Class I permeabilizing plant defensin, mature protein SEQ ID NO:28 (RTCESQSHRFKGLCFSRSNCASVCHTEGFNGGHCRGFRRRCFCTRHC; HXL004 Nicotiana benthamiana)
Candida albicans [1]; [10]
  Observed inhibition: 91.2%
  Expected inhibition: 9.6%
  Synergy: 81.6
Candida albicans [1]; [11]
  Observed inhibition: 93.5%
  Expected inhibition: 63.6%
  Synergy: 29.9
Candida albicans [1]; [12]
  Observed inhibition: 81.8%
  Expected inhibition: 55.2%
  Synergy: 26.6
Candida albicans [3]; [13]
  Observed inhibition: 92.3%
  Expected inhibition: 14.0%
  Synergy: 78.3

## HXL008: Class I permeabilizing plant defensin, mature protein SEQ ID NO:30 (KVCTKPSKFFKGLCGTDGACTTACRKEGLHSGYCQLKGFLNSVCVCRKHC; HXL008 Picramnia pentandra)
Candida albicans [1]; [10]
  Observed inhibition: 100.0%
  Expected inhibition: 0.0%
  Synergy: 100.0
Candida albicans [1]; [11]
  Observed inhibition: 63.8%
  Expected inhibition: 14.8%
  Synergy: 49.0
Candida albicans [1]; [12]
  Observed inhibition: 98.9%
  Expected inhibition: 30.2%
  Synergy: 68.7
Candida albicans [3]; [14]
  Observed inhibition: 87.3%
  Expected inhibition: 46.7%
  Synergy: 40.6

## HXL009: Class I permeabilizing plant defensin, mature protein SEQ ID NO:33 (TVCMRHNNFYHGPCMSNKDCANSCVQHNLGVGGYCRGKIPFNKECMCTFEC; HXL009)
Candida albicans [3]; [9]
  Observed inhibition: 65.2%
  Expected inhibition: 3.7%
  Synergy: 61.5

## HXL012: Class I permeabilizing plant defensin, mature protein SEQ ID NO:25 (RMCKAPSKLFRGMCGIRDSNCDSVCRAEGMAAGDCHGLRRRCICSRPC; HXL012 Amaranthus retroflexus)
Candida albicans [1]; [4]
  Observed inhibition: 89.7%
  Expected inhibition: 14.8%
  Synergy: 74.9
Candida albicans [1]; [5]
  Observed inhibition: 100.0%
  Expected inhibition: 12.3%
  Synergy: 87.7
Candida albicans [1]; [15]
  Observed inhibition: 97.3%
  Expected inhibition: 34.5%
  Synergy: 62.8
Candida albicans [3]; [9]
  Observed inhibition: 51.2%
  Expected inhibition: 0%
  Synergy: 51.2

## HXL013: Class I permeabilizing plant defensin, mature protein SEQ ID NO:31 (KDCLTRRHGFQGRCLFDRQCAHVCRSDGFIGGQCRGPLRKCFCSRPC; HXL013 glycine max)
Candida albicans [1]; [16]
  Observed inhibition: 100.0%
  Expected inhibition: 10.1%
  Synergy: 89.9
Candida albicans [1]; [17]
  Observed inhibition: 100.0%
  Expected inhibition: 13.8%
  Synergy: 86.2
Candida albicans [3]; [13]
  Observed inhibition: 90.8%
  Expected inhibition: 4.3%
  Synergy: 86.5

## HXL015: Class I permeabilizing plant defensin, mature protein SEQ ID NO:32 (RHCLSQSHRFKGMCVSSNNCANVCRTESFPDGECKSHGLERKCFCKKVC; HXL015 Oryza sativa)
Candida albicans [1]; [18]
  Observed inhibition: 100.0%
  Expected inhibition: 28.1%
  Synergy: 71.9
Candida albicans [1]; [16]
  Observed inhibition: 100.0%
  Expected inhibition: 0.0%
  Synergy: 100.0
Candida albicans [1]; [17]
  Observed inhibition: 94.7%
  Expected inhibition: 0.0%
  Synergy: 94.7
Candida albicans [3]; [19]
  Observed inhibition: 71.8%
  Expected inhibition: 19%
  Synergy: 52.8

## RsAFP2: non-permeabilizing defensin used as comparison (QKLCQRPSGTWSGVCGNNNACKNQCIRLEKARHGSCNYVFPAHKCICYFPC; UniProt P30230 30-80, looked up) [reference compound]
Candida albicans [3]; [20]
  Observed inhibition: 19.0%
  Expected inhibition: 1.7%
  Synergy: 17.3
